From patent publication US6737383B1, “Herbicidal oxadiazolidines” (priority 1999, dated 2004)

Tests used:
surinam grass = assay: Test B pre/postemergence surinam grass; assay type: in vivo, Brachiaria decumbens
Text: (§1) Seeds of bedstraw (Galium aparine), blackgrass (Alopecurus myosuroides), surinam grass (Brachiaria decumbens), cocklebur (Xanthium strumarium), corn (Zea mays), crabgrass (Digitaria sanguinalis), giant foxtail (Setaria faberii), morningglory (Ipomoea hederacea), pigweed (Amaranthus retroflexus), rape (Brassica napus), soybean (Glycine max), sugar beet (Beta vulgaris), velvetleaf (Abutilon theophrasti), wheat (Triticum aestivum), wild oat (Avena fatua) and purple nutsedge (Cyperus rotundus) tubers were planted and treated preemnergence with test chemicals formulated in a non-phytotoxic solvent mixture which included a surfactant.
(§2) At the same time, these crop and weed species were also treated with postemergence applications of test chemicals formulated in the same manner. Plants ranged in height from 2 to 18 cm (1- to 4-leaf stage) for postemergence treatments. Plant species in the flood test consisted of rice (Oryza sativa), smallflower flatsedge (Cyperus difformis), duck salad (Heteranthera limosa) and bamyardgrass (Echinochloa crus-galli) grown to the 2-leaf stage for testing. Treated plants and controls were maintained in a greenhouse for twelve to sixteen days, after which all species were compared to controls and visually evaluated. Plant response ratings, summarized in Table B, are based on a scale of 0 to 10 where 0 is no effect and 10 is complete control. A dash (−) response means no test result.

purple nutsedge = assay: Test B pre/postemergence purple nutsedge; assay type: in vivo, Cyperus rotundus
Text: as §1, §2

blackgrass = assay: Test B pre/postemergence blackgrass; assay type: in vivo, Alopecurus myosuroides
Text: as §1, §2

bedstraw = assay: Test B pre/postemergence bedstraw; assay type: in vivo, Galium aparine
Text: as §1, §2

giant foxtail = assay: Test B pre/postemergence giant foxtail; assay type: in vivo, Setaria faberii
Text: as §1, §2

corn = assay: Test B pre/postemergence corn; assay type: in vivo, Zea mays
Text: as §1, §2

morningglory = assay: Test B pre/postemergence morningglory; assay type: in vivo, Ipomoea hederacea
Text: as §1, §2

pigweed = assay: Test B pre/postemergence pigweed; assay type: in vivo, Amaranthus retroflexus
Text: as §1, §2

soybean = assay: Test B pre/postemergence soybean; assay type: in vivo, Glycine max
Text: as §1, §2

cocklebur = assay: Test B pre/postemergence cocklebur; assay type: in vivo, Xanthium strumarium
Text: as §1, §2

sugar beet = assay: Test B pre/postemergence sugar beet; assay type: in vivo, Beta vulgaris
Text: as §1, §2

wheat = assay: Test B pre/postemergence wheat; assay type: in vivo, Triticum aestivum
Text: as §1, §2

rape = assay: Test B pre/postemergence rape; assay type: in vivo, Brassica napus
Text: as §1, §2

crabgrass = assay: Test B pre/postemergence crabgrass; assay type: in vivo, Digitaria sanguinalis
Text: as §1, §2

velvetleaf = assay: Test B pre/postemergence velvetleaf; assay type: in vivo, Abutilon theophrasti
Text: as §1, §2

wild oat = assay: Test B pre/postemergence wild oat; assay type: in vivo, Avena fatua
Text: as §1, §2

[1] = Preemergence, Rate 62 g/ha, scale of 0 to 10 where 0 is no effect and 10 is complete control
[2] = Preemergence, Rate 250 g/ha, scale of 0 to 10 where 0 is no effect and 10 is complete control
[3] = Preemergence, Rate 500 g/ha, scale of 0 to 10 where 0 is no effect and 10 is complete control
[4] = Rate 62 g/ha, Postemergence, scale of 0 to 10 where 0 is no effect and 10 is complete control
[5] = Rate 125 g/ha, Preemergence, scale of 0 to 10 where 0 is no effect and 10 is complete control
[6] = Rate 500 g/ha, Postemergence, scale 0 to 10, 0 no effect, 10 complete control
[7] = Rate 125 g/ha, Postemergence, scale 0 to 10

CC(C)N(C(=O)n1oc(=O)n(C(C)C(=O)c2ccccc2)c1=O)c1ccc(F)cc1 (stereo not shown) [Compound 260]
2: Blackgrass plant response rating (blackgrass; [2]) | Crabgrass plant response rating (crabgrass; [5])
0: B. signalgrass plant response rating (surinam grass; [1]) | B. signalgrass plant response rating (surinam grass; [2]) | B. signalgrass plant response rating (surinam grass; [4]) | B. signalgrass plant response rating (surinam grass; Rate 125 g/ha, Postemergence, scale 0 (no effect) to 10 (complete control)) | B. signalgrass plant response rating (surinam grass; [5]) | Plant response rating (0 to 10; 0 is no effect, 10 is complete control), B. signalgrass (surinam grass; Rate 250 g/ha, Postemergence) | B. signalgrass plant response rating (surinam grass; [6]) | Nutsedge plant response rating (purple nutsedge; [1]) | Nutsedge plant response rating (purple nutsedge; [2]) | Nutsedge plant response rating (purple nutsedge; [5]) | Plant response rating (0 to 10; 0 is no effect, 10 is complete control), Nutsedge (purple nutsedge; Rate 250 g/ha, Postemergence) | Nutsedge plant response rating (purple nutsedge; [6]) | Blackgrass plant response rating (blackgrass; [1]) | Blackgrass plant response rating (blackgrass; [4]) | Blackgrass plant response rating (blackgrass; [7]) | Blackgrass plant response rating (blackgrass; [5]) | Plant response rating (0 to 10; 0 is no effect, 10 is complete control), Blackgrass (blackgrass; Rate 250 g/ha, Postemergence) | Blackgrass plant response rating (blackgrass; [6]) | Bedstraw plant response rating (bedstraw; [1]) | Bedstraw plant response rating (bedstraw; [5]) | Plant response rating (0 to 10; 0 is no effect, 10 is complete control), Giant foxtail (giant foxtail; Rate 250 g/ha, Postemergence) | Giant foxtail plant response rating (giant foxtail; [6]) | Corn plant response rating (corn; [1]) | Corn plant response rating (corn; [2]) | Plant response rating, Corn (corn; [3]) | Corn plant response rating (corn; [4]) | Corn plant response rating (corn; [7]) | Corn plant response rating (corn; [5]) | Plant response rating (0 to 10; 0 is no effect, 10 is complete control), Corn (corn; Rate 250 g/ha, Postemergence) | Corn plant response rating (corn; [6]) | Morningglory plant response rating (morningglory; [1]) | Morningglory plant response rating (morningglory; [2]) | Plant response rating, Morningglory (morningglory; [3]) | Morningglory plant response rating (morningglory; [5]) | Redroot pigweed plant response rating (pigweed; [1]) | Redroot pigweed plant response rating (pigweed; [5]) | Soybean plant response rating (soybean; [1]) | Soybean plant response rating (soybean; [2]) | Plant response rating, Soybean (soybean; [3]) | Soybean plant response rating (soybean; [5]) | Cocklebur plant response rating (cocklebur; [1]) | Cocklebur plant response rating (cocklebur; [2]) | Plant response rating, Cocklebur (cocklebur; [3]) | Cocklebur plant response rating (cocklebur; [4]) | Cocklebur plant response rating (cocklebur; [7]) | Cocklebur plant response rating (cocklebur; [5]) | Plant response rating (0 to 10; 0 is no effect, 10 is complete control), Cocklebur (cocklebur; Rate 250 g/ha, Postemergence) | Cocklebur plant response rating (cocklebur; [6]) | Sugarbeets plant response rating (sugar beet; [1]) | Sugarbeets plant response rating (sugar beet; [2]) | Plant response rating, Sugarbeets (sugar beet; [3]) | Sugarbeets plant response rating (sugar beet; [5]) | Wheat plant response rating (wheat; [1]) | Wheat plant response rating (wheat; [2]) | Plant response rating, Wheat (wheat; [3]) | Wheat plant response rating (wheat; [5]) | Wheat plant response rating (wheat; [6]) | Rape plant response rating (rape; [1]) | Rape plant response rating (rape; [2]) | Plant response rating, Rape (rape; [3]) | Rape plant response rating (rape; [5]) | Plant response rating (0 to 10; 0 is no effect, 10 is complete control), Rape (rape; Rate 250 g/ha, Postemergence) | Rape plant response rating (rape; [6]) | Crabgrass plant response rating (crabgrass; [1]) | Plant response rating (0 to 10; 0 is no effect, 10 is complete control), Crabgrass (crabgrass; Rate 250 g/ha, Postemergence) | Crabgrass plant response rating (crabgrass; [6]) | Velvetleaf plant response rating (velvetleaf; [1]) | Velvetleaf plant response rating (velvetleaf; [2]) | Plant response rating, Velvetleaf (velvetleaf; [3]) | Velvetleaf plant response rating (velvetleaf; [5]) | Wild oats plant response rating (wild oat; [1]) | Wild oats plant response rating (wild oat; [2]) | Plant response rating, Wild oats (wild oat; [3]) | Wild oats plant response rating (wild oat; [5]) | Wild oats plant response rating (wild oat; [6])
8: Giant foxtail plant response rating (giant foxtail; [2])
6: Bedstraw plant response rating (bedstraw; [4]) | Redroot pigweed plant response rating (pigweed; [6]) | Crabgrass plant response rating (crabgrass; [2])
3: Plant response rating, B. signalgrass (surinam grass; [3]) | Plant response rating, Blackgrass (blackgrass; [3]) | Giant foxtail plant response rating (giant foxtail; [1]) | Plant response rating (0 to 10; 0 is no effect, 10 is complete control), Morningglory (morningglory; Rate 250 g/ha, Postemergence) | Plant response rating (0 to 10; 0 is no effect, 10 is complete control), Redroot pigweed (pigweed; Rate 250 g/ha, Postemergence) | Sugarbeets plant response rating (sugar beet; [6])
9: Plant response rating, Crabgrass (crabgrass; [3])
1: Soybean plant response rating (soybean; [6]) | Velvetleaf plant response rating (velvetleaf; [6])
5: Plant response rating, Bedstraw (bedstraw; [3])
10: Plant response rating, Giant foxtail (giant foxtail; [3])
7: Bedstraw plant response rating (bedstraw; [7]) | Giant foxtail plant response rating (giant foxtail; [5])
4: Morningglory plant response rating (morningglory; [6]) | Redroot pigweed plant response rating (pigweed; [2]) | Plant response rating, Redroot pigweed (pigweed; [3])
